Common to all, as to test: agar diffusion method using a paper disk
A general note: A growth-free zone around the sample is the usual read-out of agar diffusion tests.

Test [1] relates to Escherichia coli (KCTC7039). The following applies: 2.5 mg/ml, 48 hours.
Test [2] deals with Staphylococcus aureus (KCTC1621). To be noted: 2.5 mg/ml, 48 hours.
In test [3] the test system is Streptococcus mutans (KCTC3065).
The test system of test [4] is Bacillus subtilis (KCTC1021). The following applies: 2.5 mg/ml, 48 hours.
Test [5] concerns Candida albicans (KCTC7270). The following applies: 2.5 mg/ml, 48 hours.

For `COc1ccc(O)c(C(C)(C)C)c1` [BHA, butylated hydroxyanisole], the Inhibition zone in test [1] was 18.4 mm; in test [2], 16.0 mm; in test [3] (Streptococcus mutans, 2.5 mg/ml, 48 hours), 3.5 mm; in test [4], 16.6 mm; in test [5] it was 16.0 mm. In addition, in test [3] (against S. mutans), the “antibacterial effect (in words)” value is recorded as “little antibacterial effect”.

For the origin of these results see US20220016193A1, “ANTIBACTERIAL AND ANTIVIRUS COMPOSITION COMPRISING Extract of CANNABIS SATIVA L” (FAMENITY CO., LTD., priority 2020, published 2022).
